Laboratory results from patent US20110300234A1, “Methods of Treating Tumor Cells Using RHCC Protein, Fragment or Variant” (priority 2008, published 2011).
No end group written: not given here.

Assays:
[1] = system: FaDu-cells s.c. in SCID-mice; assay: In vivo tumor reduction assay; parameters: species or system mouse
Description: Mice are palpated and weighed 3 times/week, and euthanized if the tumor diameter exceeded 10 mm or if weight decreased below 80% of starting weight, according to ethical guidelines.

[2] = system: H69AR resistant small-cell lung cancer sub-line; assay: Fluorometric microculture cytotoxicity assay (FMCA); format: cell-based, human; details: FMCA 72 hr, cisplatin concentration, read-out: IC50 (95% confidence interval)
Description: (§1) FaDu is grown in DMEM and 10% heat-inactivated FBS, 0.1 mM MEM non-essential amino acids, 1.2 mM sodium pyruvate, 24 mM HEPES, with penicillin and streptomycin. MDA 231, a breast cancer cell line, RPMI 8226, a myeloma cell line, its resistant sub-line 8226/Dox40, NCI-H69, a small lung cancer cell line, its resistant sub-line H69AR, ACHN, a primary resistant renal adenocarcinoma, the ovarian carcinoma cell line A2780, and its resistant sub-line, A2780-Cis, are all grown in RPMI-1640 with 10% heat-inactivated FCS, 2 mM glutamine, penicillin and streptomycin. hTERT-RPE1 a normal epithelial telomerase immortalized line is grown in DMEM nutrient mixture F-12 Ham with 10% heat-inactivated FCS, 2 mM glutamine, penicillin and streptomycin. Tumor cells obtained from 3 ovarian carcinoma patients (OC1-OC3) after ethical approval (Uppsala University ethical committee) are isolated by collagenase dispersion and Percoll density gradient centrifugation (GE Healthcare Life Sciences, Uppsala, Sweden) (see Csoka et al, Gynecol. Oncol., 54(2):163-70 (1994)). […] For experiments, frozen cells are thawed, washed twice and kept in RPMI 1640.
(§2) Microtitre plates (Nunc, Roskilde, Denmark) are prepared with 20 μl/well of drug solution 10 times the desired concentration. To evaluate the cytotoxic activity, the drug plates are seeded with 2×10^4 cells/180 μl/well. A column without drugs serves as a control, and a column with medium serves as a blank FMCA is based on measurements of fluorescence generated from hydrolysis of fluorescein diacetate (FDA) to fluorescein by cells with intact plasma membrane (see Larsson et al, Int. J. Cancer, 50(2):177-85 (1992)). The plates are incubated at 37° C. for 72 hr, washed in PBS, whereafter FDA (dissolved in PBS, 10 μg/ml) is added at 100 μl/well. Plates are then incubated for 50 min, and fluorescence/well is measured at 538 nm in a scanning fluorometer (Fluoroscan II, Labsystems Oy, Helsinki, Finland). Fluorescence is proportional to the number of viable cells/well. Quality criteria for successful analysis includes a fluorescence signal in control wells of more than 5 times mean blank value and a mean coefficient of variation in control wells of less than 30%. Experiments were repeated 3 times.
(§3) FMCA data is processed by GraphPad Prism (GraphPad Software, Inc. San Diego, Calif.) with non-linear regression to a standard sigmoidal dose-response model. Zero and 100% cell survival are set as the maximum effect and the baseline, and IC50 (inhibitory concentration 50%) is estimated. For drugs not resulting in 50% reduction of cell survival, the IC50 was set to>the highest concentration tested.

[3] = system: NCI-H69 small-cell lung cancer cell line; assay: as above; format: cell-based, human; details: NCI-H69, FMCA 72 hr, highest concentration tested 10 μM; read-out: IC50 (95% confidence interval)
Description: as §1, §2, §3

[4] = system: FaDu head and neck squamous cell carcinoma cell line; assay: as above; format: cell-based, human; details: FMCA 72 hr, cisplatin concentration, read-out: IC50 (95% confidence interval)
Description: as §1, §2, §3

[5] = system: ACHN renal adenocarcinoma cell line; assay: as above; format: cell-based, human; details: FMCA 72 hr, cisplatin concentration, read-out: IC50 (95% confidence interval)
Description: as §1, §2, §3

[6] = system: MDA 231 breast cancer cell line; assay: as above; format: cell-based, human; details: MDA 231, FMCA 72 hr, cisplatin concentration; read-out: IC50 (95% confidence interval)
Description: as §1, §2, §3

[7] = system: A2780cis resistant ovarian carcinoma sub-line; assay: as above; format: cell-based, human; details: FMCA 72 hr, highest concentration tested 10 μM, read-out: IC50 (95% confidence interval)
Description: as §1, §2, §3

[8] = system: A2780 ovarian carcinoma cell line; assay: as above; format: cell-based, human; details: A2780, FMCA 72 hr, highest concentration tested 10 μM; read-out: IC50 (95% confidence interval)
Description: as §1, §2, §3

[9] = system: 8226/dox40 resistant myeloma sub-line; assay: as above; format: cell-based, human; details: 8226/dox40, FMCA 72 hr, cisplatin concentration; read-out: IC50 (95% confidence interval)
Description: as §1, §2, §3

[10] = system: RPMI 8226/S myeloma cell line; assay: as above; format: cell-based, human; details: FMCA 72 hr, cisplatin concentration, read-out: IC50 (95% confidence interval)
Description: as §1, §2, §3

[11] = system: h-TERT-RPE1 normal epithelial telomerase immortalized cell line; assay: as above; format: cell-based, human; details: h-TERT-RPE1, FMCA 72 hr, highest concentration tested 10 μM; read-out: IC50 (95% confidence interval)
[12] = system: murine dendritic cells; assay: Dendritic cell (DC) maturation assay; format: cell-based, mouse; details: 50 μg/ml RHCC, 24 hr, vs unstimulated cells
Description: Murine bone marrow-derived dendritic cells (BMDCs) are generated according to Lutz et al, J. Immunol. Methods, 223(1):77-92 (1999), and murine splenic DCs are purified using CD11c (N418) MicroBeads (Miltenyi Biotec, Auburn, Calif., USA) according to the manufacturer. DCs are seeded in 24-well plates (BD Biosciences, San Diego, Calif., USA) at 10^6 cells/ml in R10 medium and mixed with 50 μg/ml RHCC. LPS 1 μg/ml (Sigma-Aldrich, Stockholm, Sweden) is used as positive control. After 24 hr stimulation, DCs are stained with PE-conjugated antibodies to CD40, CD80 and CD86 and FITC-conjugated antibody to MHC Class II I-Ab (BD Biosciences Pharmingen, San Diego, Calif., USA) 30 min at 4° C., washed twice in PBS with 0.1% BSA and analyzed by flow cytometry. IL-12 production is analyzed by ELISA according to the manufacturer (Mabtech, Nacka, Sweden). Plates are coated with 2 μg/ml of anti-IL-12 capture antibody o.n, then after blocking, 100 μl of BMDC culture supernatants are added at dilutions 1:1-1:128 for 2 hr at RT. Plates are thereafter incubated with biotinylated anti-IL-12 antibody 1 hr at room temperature, and the response is visualized as above for ELISA.

[13] = system: RHCC-specific antibodies in Balb/c-mice; assay: ELISA of antibody response to RHCC in sera; format: in vivo, mouse; details: 14 days after i.v. 0.4 or 0.2 mg RHCC
Description: The antibody response to RHCC in sera from Balb/c-mice collected 14 days after i.v. injection of 0.4 or 0.2 mg RHCC (2 mice/group), or 0.1 M NaCl (one mouse), is measured by ELISA. Microtitre plates (BD Biosciences, San Diego, Calif., USA) are coated with 5 μg/ml RHCC in 0.1 M carbonate-buffer pH 9.6 per well o.n. at 4° C. Plates are blocked in blocking solution (5% milk powder, 0.2% Tween in PBS) for 1 hr at room temperature. Serial dilutions of mouse sera in blocking solution (1:50-1:1350) is added in duplicates to the wells. After 1 hr at room temperature, plates are washed and incubated with secondary alkaline phosphatase (AP) conjugated goat-anti mouse IgG antibody (Sigma-Aldrich, Stockholm, Sweden). Plates are washed and developed with nitrophenylphosphate (pNPP) (Sigma-Aldrich, Stockholm, Sweden) and absorbance is measured at 405 nm in a VersaMax microplate reader (Molecular Devices, Sunnyvale, Calif., USA).

[14] = background statement; cited from earlier work
[15] = system: Balb/c mice; assay: Tolerability in mice after RHCC injection; details: after injection with endotoxin purified RHCC
[16] = system: IFNγ-secreting splenocytes of Balb/c-mice; assay: IFN-γ EliSpot assay of splenocytes after RHCC injection; details: 7 days after i.v. 0.4 or 0.2 mg RHCC
[17] = system: 10 cell lines; assay: FMCA, statements over the panel of cell lines; format: cell-based, human; details: tested concentrations, starting at 3.48 μM, all cell types
Description: (§4) FaDu is grown in DMEM and 10% heat-inactivated FBS, 0.1 mM MEM non-essential amino acids, 1.2 mM sodium pyruvate, 24 mM HEPES, with penicillin and streptomycin. […]
as §2, with “To evaluate the cytotoxic activity, the drug plates are seeded with 2×10^4 cells/180 μl/well.” left out, “The plates are incubated at 37° C. for 72 hr, washed in PBS, whereafter FDA (dissolved in PBS, 10 μg/ml) is added at 100 μl/well.” left out, “Experiments were repeated 3 times.” left out

[18] = system: primary human tumor cells from ovarian carcinoma patients (OC1-OC3); assay: FMCA in primary human tumor cells; format: cell-based; details: cell lines and patient samples tested
Description: as §4
as §2, with “To evaluate the cytotoxic activity, the drug plates are seeded with 2×10^4 cells/180 μl/well.” left out, “The plates are incubated at 37° C. for 72 hr, washed in PBS, whereafter FDA (dissolved in PBS, 10 μg/ml) is added at 100 μl/well.” left out, “Experiments were repeated 3 times.” left out

N.N.[Cl][Pt][Cl] [Cisplatin, Cis-diammine-dichloroplatinum (II)]
alteration in weight ([1]; i.v., during the experiment): no significant alteration in weight | IC50 [2]: 8.5 µM | IC50 [3]: > 10 µM | IC50 [4]: 7.9 µM | IC50 [5]: 6.9 µM | IC50 [6]: > 10 µM | IC50 [7]: > 10 µM | IC50 [8]: > 10 µM | IC50 [9]: > 10 µM | IC50 [10]: 7.44 µM | IC50 [11]: > 10 µM

RHCC: Recombinant Right-Handed Coiled-Coil protein tetramer of Tetrabrachion (Staphylothermus marinus), strands of SEQ ID NO:1, purified from endotoxins (GSIINETADDIVYRLTVIIDDRYESLKNLITLRADRLEMIINDNVSTILASI; also: tetramer)
tumor reduction, RHCC alone ([1]; 0.675 mg RHCC, separate experiment): no effect on tumor reduction | CD40 expression [12]: weak increase | IL-12 production [12]: weak increase | maturation markers CD80, CD86 and MHC Class II [12]: no increase | RHCC-specific antibody response (ELISA) [13]: no significant antibody response | temperature at which stable [14]: over 100 °C | signs of illness (viability, weight) [15]: no signs of illness | IFNγ-EliSpot T cell response [16]: slight production of specific CD8+ T cells | toxicity of RHCC alone [17]: nontoxic | cytotoxic effect of RHCC alone [18]: no cytotoxic effect
